We go through five compounds from paper PMC8038955, “Antimicrobial D-amino acid oxidase-derived peptides specify gut microbiota” (Cellular and Molecular Life Sciences: CMLS, 2021).

The subject of assay [1] is L. fermentum ATCC 14931. Briefly: Lactobacilli susceptibility, broth microdilution (ISO 10932/IDF 233). The class given is cell-based, Lactobacillus fermentum. The following applies: Limosilactobacillus fermentum. As to the method: (§1) To assess the effect of antibacterial peptides on lactobacilli, Lactobacillus acidophilus ATCC 4356, Lactobacillus casei ATCC 393, Lactobacillus fermentum ATCC 14931, and Lactobacillus rhamnosus ATCC 7469 strains (from American Type Culture Collection) were used. Before performing the test, cultures were streaked on Lactobacilli MRS agar (MRS) and incubated for 24 h at 37 °C in an anaerobic chamber (BD Difco, Detroit, MI, USA). Antibacterial susceptibility testing was performed according to the ISO 10932/IDF 233 standard (ISO, 2010). […] Typically, a twofold serial dilution of stock solutions was performed in Lactobacilli MRS broth to obtain solutions in the 0.2–100 µM concentration range. Bacterial inocula were prepared by suspending colonies, from 24 h incubated Lactobacilli MRS agar plates, into 2 mL of 0.85% NaCl solution. […] MIC values were estimated after incubating the plates under anaerobic conditions at 37 °C for 48 h.

For assay [2], the system named is L. acidophilus ATCC 4356. Described as above. The following applies: Lactobacillus acidophilus. In kind it is cell-based. As to the method: as §1
Assay [3] relates to L. rhamnosus ATCC 7469. The assay is described as above. The class given is cell-based, Lactobacillus rhamnosus. The following applies: Lacticaseibacillus rhamnosus. The method, then:
as §1

The subject of assay [4] is L. casei ATCC 393. The assay is described as above. In kind it is cell-based, Lactobacillus casei. As to conditions: Lacticaseibacillus casei. The method, then:
as §1

Assay [5] deals with Pseudomonas aeruginosa PAO1. In kind it is cell-based. The following applies: control antibiotic; broth microdilution, Nutrient Broth 0.5×, overnight 37 °C. As to the method:
(§2) MIC (Minimum Inhibitory Concentration) analyses were performed on Gram-positive and Gram-negative bacteria by a broth microdilution method previously described, with minor modifications. In details, assays were carried out in Nutrient Broth 0.5× (Difco, Detroit, MI, USA) using sterile 96-well polypropylene microtiter plates (cat. 3879, Costar Corp., Cambridge, MA, USA). Bacterial strains were grown in Luria–Bertani (LB) medium overnight at 37 °C and then diluted in nutrient broth at a final concentration of ~ 5 × 10^5 CFU/mL per well. […] Peptide concentrations were determined by spectrophotometric analysis using the extinction coefficients calculated by the ProtParam tool (http://web.expasy.org/protparam/). Twofold serial dilutions of peptides were carried out in the test wells (0.2–100 μM concentration range). Plates were incubated overnight at 37 °C. MIC value was taken as the lowest concentration at which growth was inhibited. Three independent experiments were performed for each MIC value. The peptide antibiotic polymyxin B and vancomycin (Sigma, St. Louis, MO) were tested as control. MIC values were measured on: Pseudomonas aeruginosa PAO1, Acinetobacter baumanii ATCC 17878, Escherichia coli ATCC 25922, Salmonella typhimurium ATCC 14028, Salmonella enteritidis 706 RIVM (kindly provided by Prof. E. Veldhuizen, Utrecht University, Holland), Staphylococcus aureus ATCC 6538P, and Enterococcus faecalis ATCC 29212.

For assay [6], the system named is Acinetobacter baumanii ATCC 17878. In kind it is cell-based. As to conditions: control antibiotic; broth microdilution, Nutrient Broth 0.5×, overnight 37 °C. The method, then: as §2
The test system of assay [7] is Salmonella enteritidis 706 RIVM. In kind it is cell-based. The following applies: control antibiotic; broth microdilution, Nutrient Broth 0.5×, overnight 37 °C. The method, then:
as §2

The subject of assay [8] is Escherichia coli ATCC 25922. The class given is cell-based. The method, then: as §2
For assay [9], the system named is Salmonella typhimurium ATCC 14028. In kind it is cell-based. As to the method:
as §2

In assay [10] the test system is Enterococcus faecalis ATCC 29212. Briefly: microbe, parasite or virus in culture. The class given is cell-based. The method, then:
as §2

Assay [11] deals with selected Gram-positive and Gram-negative strains. Briefly: Antimicrobial activity of mucosal peptides on selected strains. The class given is cell-based. The following applies: summary of Table 3. As to the method: as §2, with “The peptide antibiotic polymyxin B and vancomycin (Sigma, St. Louis, MO) were tested as control.” left out
Assay [12] concerns Escherichia coli ATCC 25922. The class given is cell-based. As to the method: The Minimum Bactericidal Concentration (MBC) was determined from the broth dilution of MIC tests by subculturing cell mixtures on agar plates. The MBC was defined as the lowest concentration of antibacterial agent that kills ≥ 99.9% of bacterial cells. According to a widely accepted criterion, peptides were considered bactericidal if their MBC was no more than four times the MIC.
This is another data set of the same source.

Setting [13] is: control antibiotic, broth microdilution, Nutrient Broth 0.5×, overnight 37 °C.

Converted amounts (≈) assume the structure as drawn. Like-named read-outs stand apart in the source and are kept apart here. Where a SMILES comes first, the peptide text is derived from it. Bridges are numbered along the chain shown (N, C = ends). Where no end group is shown, it is not given here. [ ]: non-standard residue; d: D form. The star is where a group is joined. X1 = CC[C@H](C)CCCCC(=O)*; Dab = NCC[C@H](N)C(=O)O

Turning to `CC[C@H]1OC(=O)[C@H](C)[C@@H](O[C@H]2C[C@@](C)(OC)[C@@H](O)[C@H](C)O2)[C@H](C)[C@@H](O[C@@H]2O[C@H](C)C[C@H](N(C)C)[C@H]2O)[C@](C)(O)C[C@@H](C)C(=O)[C@H](C)[C@@H](O)[C@]1(C)O` [Erythromycin], the MIC in assay [1] (ATCC14931, Lactobacilli MRS broth, 3–8 × 10^5 CFU/mL, anaerobic, 37 °C, 48 h, 0.2–100 µM range, read-out: MIC) came out at 1.4 µM (≈ 1.03 µg/mL); in assay [2] (ATCC4356, Lactobacilli MRS broth, 3–8 × 10^5 CFU/mL, anaerobic, 37 °C, 48 h, 0.2–100 µM range, read-out: MIC), 0.7 µM (≈ 0.514 µg/mL); in assay [3] (ATCC7469, Lactobacilli MRS broth, 3–8 × 10^5 CFU/mL, anaerobic, 37 °C, 48 h, 0.2–100 µM range, read-out: MIC) it was 0.7 µM (≈ 0.514 µg/mL); in assay [4] (ATCC393, Lactobacilli MRS broth, 3–8 × 10^5 CFU/mL, anaerobic, 37 °C, 48 h, 0.2–100 µM range, read-out: MIC) it was 2.8 µM (≈ 2.06 µg/mL).
Turning to `CC[C@H](C)CCCCC(=O)N[C@@H](CCN)C(=O)N[C@H](C(=O)N[C@@H](CCN)C(=O)N[C@H]1CCNC(=O)[C@H]([C@@H](C)O)NC(=O)[C@H](CCN)NC(=O)[C@H](CCN)NC(=O)[C@H](CC(C)C)NC(=O)[C@@H](Cc2ccccc2)NC(=O)[C@H](CCN)NC1=O)[C@@H](C)O` [Polymyxin B, polymyxin B] (X1-[Dab]T[Dab][Dab][Dab][dF]L[Dab][Dab]T; lactam 4-C (inferred); N-terminus assumed), the MIC in assay [5] was 0.25 µg/mL (≈ 0.208 µM); in assay [6] it was 0.5 µg/mL (≈ 0.415 µM); in [7], 0.5 µg/mL (≈ 0.415 µM); in assay [8] (setting [13]), 0.5 µg/mL; in assay [9] (setting [13]), 0.12 µg/mL.
`CN[C@H](CC(C)C)C(=O)N[C@H]1C(=O)N[C@@H](CC(N)=O)C(=O)N[C@H]2C(=O)N[C@H]3C(=O)N[C@H](C(=O)N[C@H](C(=O)O)c4cc(O)cc(O)c4-c4cc3ccc4O)[C@H](O)c3ccc(c(Cl)c3)Oc3cc2cc(c3O[C@@H]2O[C@H](CO)[C@@H](O)[C@H](O)[C@H]2O[C@H]2C[C@](C)(N)[C@H](O)[C@H](C)O2)Oc2ccc(cc2Cl)[C@H]1O` [Vancomycin, vancomycin]: the MIC in assay [10] (Enterococcus faecalis, ATCC29212) was 2 µg/mL; in assay [1] (ATCC14931, 48 h), over 100 µM; in assay [2] (ATCC4356, 48 h), over 100 µM; in assay [3] (ATCC7469, 48 h), over 100 µM; in [4] (ATCC393, 48 h) it was over 100 µM.
Turning to EAANLFGKILEEKKLSRLPPSHL [EAA], the MIC in [10] (ATCC 29212) and in [9] (ATCC 14028) was over 200 µM throughout. In addition, the “antibacterial activity (in words)” value in assay [11] was “did not show any antibacterial activity”.
As for LKNARIVGELTGFRPVRPQVRLE [LKN], the MIC in [10] (ATCC 29212) is over 200 µM; in assay [8] (ATCC 25922), 50 µM; in [9] (ATCC 14028) it was over 200 µM. This compound registered an MBC in assay [12] of 50 µM.
